Results: US9198875B2, “Controlled delivery of bioactive agents from decomposable films” (Massachusetts Institute of Technology, priority 2008, dated 2015)
Values after ≈ are worked out from the molar mass of the structure shown. Read-outs that look alike come from different tables or passages of the source.

What was measured:
[1] = Complexation coefficients of drugs with cyclodextrins; type: physicochemical; details: calculated from solubility values
[2] = Release of small molecules from polymeric cyclodextrin-containing LbL films in phosphate buffer (fluorescence spectroscopy); type: physicochemical; details: 20 bilayers; for Release Rate: from poly A3/poly(BCD) films, phosphate buffer pH 7.4
Method: Release profiles were investigated by monitoring the release of the small molecule using a fluorimeter and the degradation of non-radiolabeled films. For drug release experiments, 20 bilayer films were constructed using carboxymethylbeta-cyclodextrin polymer:drug conjugate solution. The deposition solutions were prepared by combining 25 μM carboxymethylbeta-cyclodextrin polymers solution in 0.1 M sodium acetate buffer (1 Mn=8,000), with the various small molecules. After fabrication, each twenty bilayer film was immersed in 10 mL phosphate buffer solution (pH 7.4, 137 mM NaCl, 2.7 mM KCl, 10 mM Na2HPO4). A 1 mL sample was extracted at various time points and analyzed via fluorescence spectroscopy. Degradation vials were tightly capped between sample extractions to prevent evaporation of the buffer solution. Raw spectrum data were converted to micrograms (μg) of drug released using a calibration curve for a given molecule at a defined emission wavelength.
Poly(BCD)-prodan inclusion complexes were made by dissolving prodan in poly(BCD) as described for poly(BCD)-ciprofloxacin inclusion complexes in Example 3. (Poly 1/poly(BCD)-prodan)20 films were constructed by layer-by-layer deposition and prodan release studies were conducted as described in Example 1.
Formation of poly(BCD): drug inclusion complexes and film construction were achieved by methods as described in Examples 1-3; release studies were performed as described in Example 4. Solubility values and complexation coefficients were determined and/or calculated according to previously published methods (Brewster et al. 2007. “Cyclodextrins as pharmaceutical solubilizers.” Advanced Drug Delivery. 59: 645-666).

[3] = Solubility of drugs in water and complexed with cyclodextrins; type: physicochemical
cyclooxygenase (COX) = experiment: Inhibition of cyclooxygenase by film release buffer in A549 cells, prostaglandin E2 concentration measured; type: cell-based, human; details: A549 cells exposed to aliquots of release buffer, buffer replaced every 24 hours
Excerpt: To determine if polymeric cyclodextrin alters drug activity, the inhibition of cyclooxygenase (COX) by diclofenac was investigated. COX is the rate limiting enzyme in the production of prostaglandins, which are important in homeostasis and inflammatory pathways (T. D. Warner et al., Proceedings of the National Academy of Sciences of the United States of America 1999, 96, 9966). A549 human lung carcinoma cells were exposed to aliquots of release buffer, and prostaglandin E2 concentration was measured. In the experiment, the release buffer was replaced every 24 hours, so that time points measured the activity of the drug released during each specific 24 hour period. […] The approach here is a utilization of a charged polymeric carrier capable of facile reversible complexation with the drug of choice in alternation with a degradable polyion. Charged cyclodextrin polymers were used for the trapping of cyclodextrin-drug complexes in stable, surface eroding films capable of drug release within the cyclodextrin carrier without altering activity. […] This technology can be applied to nanomedicine coatings for applications in personalized medicine, transdermal delivery, medical devices, nanoparticulate carriers, prosthetic implants, as well as small molecules for imaging, agriculture, and basic scientific research.

[4] = Release of 14C-dextran sulfate from LbL films in phosphate buffer (scintillation counting); type: physicochemical; details: films built with poly A3, 20 bilayers, phosphate buffer pH 7.4; approximately linear kinetics
Method: Release profiles were investigated by monitoring the release of ^14C-dextran sulfate and the degradation of non-radiolabeled films. For drug release experiments, 20 bilayer radiolabeled films were constructed using ^14C-dextran sulfate solution. The radiolabled deposition solutions were prepared by combining ^14C-dextran sulfate (1.5 mCi/g, Mn=8,000), unlabeled dextran sulfate (Mn=8,000), and 100 mM acetate buffer to yield a total concentration of dextran sulfate (unlabeled plus labeled) to 2 mg/mL (1 μCi/mL ^14C). After fabrication, each twenty bilayer film was immersed in 30 mL phosphate buffer solution (pH 7.4, 137 mM NaCl, 2.7 mM KCl, 10 mM Na2HPO4). A 1 mL sample was extracted at various time points and analyzed via scintillation counting. Scintillation counting was performed on a Tri-carb liquid scintillation counter (Model U2200) and the amount of radiolabel in each sample vial was measured using ^14C protocol. Degradation vials were tightly capped between sample extractions to prevent evaporation of the buffer solution. Raw data (disintegrations per minute, DPM) were converted to micrograms (μg) of drug released using the conversion factor 2.2×10^6 DPM=1 μCi, the specific radioactivity of the drug, and knowledge of the ratio of total drug to labeled drug in the deposition solution.

[5] = drug complexed with cyclodextrins, aqueous with cosolvent or surfactant or cyclodextrin, read-out: St, solubility complexed with cyclodextrins

| Compound | Kc, complexation coefficient [1] [M⁻¹] | Release Rate [2] [ng/h] | solubility [3, 5] [µg/mL] | also measured |
| --- | --- | --- | --- | --- |
| CC(C(=O)O)c1ccc(-c2ccccc2)c(F)c1 (stereo not drawn) [Flurbiprofen] | 4930 | 4 | 540 (≈ 2210 µM) | S0, solubility in water ([3]; in water): 8 µg/mL |
| O=C(O)Cc1ccccc1Nc1c(Cl)cccc1Cl [Diclofenac] | – | 5 | 2800 (≈ 9450 µM) | solubility ([3]; in water, read-out: S0, solubility in water): 2 µg/mL (≈ 6.75 µM); activity of released drug: COX inhibition, suppressed prostaglandin production (cyclooxygenase (COX)): highly active |
| dextran sulfate | – | – | – | time span over which dextran sulfate continued to be released [4]: at least 8 days |
| COc1ccc2cc([C@H](C)C(=O)O)ccc2c1 [Naproxen] | 4300 | 1 | – | – |
| O=C(O)c1cn(C2CC2)c2cc(N3CCNCC3)c(F)cc2c1=O [Ciprofloxacin] | – | – | – | time through which ciprofloxacin continued to be released (latest time point tested) ([2]; poly 1/poly(BCD)-ciprofloxacin films, phosphate buffer): ≥ 69.3 h |
